Source: publication PMC2845396 (Clinical cancer research : an official journal of the …, 2009)

Key:
[1] = Plasma pharmacokinetics of PB and metabolites PA and PG; conditions: PB continuous infusion over 24 hours, 400 mg/kg/d, Overall
[2] = tested on: DNMT; conditions: plasma concentration reached only with 5-AC 75 mg/m^2/d; cited from earlier work
[3] = tested on: DNA methyltransferase (DNMT); experiment: DNA methyltransferase enzyme activity in paired tumor biopsies; type: in vivo, human; conditions: one patient with hepatocellular carcinoma; 5-AC 15 mg/m^2/d for 14 days
[4] = tested on: advanced solid tumor; conditions: 5-AC 20 – 25 mg/m^2 daily for 10 days; cited from earlier work
[5] = tested on: Epstein Barr Virus (EBV); experiment: EBV viral load in PBMC by real-time PCR; type: in vivo, human; conditions: after 5-AC treatment
[6] = intravenous administration for 5 days, refractory solid tumors; cited from earlier work
[7] = Toxicity in patients, graded by NCI CTC version 2.0; type: in vivo, human
[8] = human, in vivo, 400 mg/kg/day
[9] = tested on: acetylated histones H3 and H4; experiment: Histone H3 or H4 acetylation in PBMC, summary over patients; type: in vivo, human
[10] = tested on: G1/G0 growth arrest; conditions: cited from earlier work

O=C(O)Cc1ccccc1 [PA, phenylacetic acid]
Tmax ([1]; mean (range)): 25.30 (23.83–27.98) h | AUC[INF] ([1]; mean ± SD): 26680 ± 11236 µM·h | Cl ([1]; mean ± SD): 9.5 ± 7.6 L/h | Cmax ([1]; plasma, mean ± SD): 1400 ± 504 µM

Nc1ncn([C@@H]2O[C@H](CO)[C@@H](O)[C@H]2O)c(=O)n1 [5-AC, 5-azacytidine]
concentration shown in vitro to cause DNMT inhibition [2]: 5 µM | inhibition of DNMT activity [3]: 75% and about 75% | duration of stable disease [4]: 4 – 8 months | patients with reduced viral load [5]: Three

O=C([O-])CCCc1ccccc1.[Na+] [PB, sodium phenylbutyrate]
maximum tolerated dose [6]: 410 mg/kg/day | confusion, G 3 (CTC grade 3), patients ([7]; human, in vivo): 1 | patients with neuro-cortical toxicity attributable to PB ([7]; of 27 patients, PB 400 mg/kg/day, intermittent or continuous 7 day infusion): 3 | Vd [8]: 14.0 ± 8.0 L | patients with increased acetylation ([9]; PB infused for just 24 hours, Four of 8 patients): 50% | patients with increased acetylation ([9]; dose schedule B, PB infused for 7 days, 3 of 5 patients): 60% | time to G1/G0 growth arrest [10]: ≤ 96 h
